Measurements reported in PMC10065799, “High-throughput profiling of sequence recognition by tyrosine kinases and SH2 domains using bacterial peptide display” (eLife, 2023).

Experiments:
c-Src kinase domain = c-Src kinase domain (Homo sapiens, UniProt P12931); assay: pTyr-Var library bacterial peptide display kinase screen (enrichment scores); format: biochemical
Fes = assay: as above; format: biochemical; conditions: mean of log2 of enrichment over R1-R6
FGFR1 kinase domain = assay: as above; format: biochemical, human
EPHB1 kinase domain = assay: as above; format: biochemical, human
FGFR3 kinase domain = assay: as above; format: biochemical, human
MERTK kinase domain = assay: as above; format: biochemical, human
SHP2 C-SH2 domain = assay: pTyr-Var library SH2 domain screen with SH2-dynabeads (enrichment scores)
Grb2 SH2 domain = assay: as above
Hck kinase domain = assay: pTyr-Var library bacterial peptide display kinase screen (enrichment scores); format: biochemical, human; conditions: enrichment score
c-Abl kinase domain = molecular target: T1, c-Abl kinase domain (Mus musculus, UniProt P00520); assay: as above; format: biochemical
T1 sequence (P00520 242-493 limits assumed): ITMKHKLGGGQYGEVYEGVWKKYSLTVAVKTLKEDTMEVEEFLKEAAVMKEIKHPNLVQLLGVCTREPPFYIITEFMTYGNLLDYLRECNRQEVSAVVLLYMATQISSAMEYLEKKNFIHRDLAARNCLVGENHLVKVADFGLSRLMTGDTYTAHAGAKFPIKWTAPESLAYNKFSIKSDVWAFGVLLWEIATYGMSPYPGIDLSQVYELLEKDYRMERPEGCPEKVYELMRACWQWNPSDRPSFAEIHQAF

[1] = test system: 4G10 Platinum pan-phosphotyrosine antibody; assay: Phosphorylated pTyr-Var library selection with biotinylated pan-phosphotyrosine antibody; format: binding, mouse; conditions: enrichment score, sheet SH2-vs-peptide
Protocol: After the desired time of library phosphorylation, kinase activity was quenched with 25 mM EDTA and the cells were washed with PBS containing 0.2% BSA. Kinase-treated cells were then labeled with a 1:1000 dilution of biotinylated 4G10 Platinum anti-phosphotyrosine antibody (Millipore) for an hour on ice and washed with PBS containing 0.1% BSA and 2 mM EDTA (isolation buffer). The cells were finally resuspended in PBS containing 0.1% BSA. The phosphorylated, antibody-labeled cells were then mixed with magnetic beads from Dynabeads FlowComp Flexi kit (Invitrogen), at a ratio of 37.5 μL of washed beads per 50 μL of cell suspension, diluted into 450 μL of isolation buffer. The suspension was rotated at 4 °C for 30 minutes, then 375 μL of isolation buffer was added and the beads were separated from the bulk solution on a magnetic rack. The beads were washed once with 1 mL of isolation buffer, and then the supertantant were removed by aspiration. […] The bead/lysate mixture was centrifuged to pellet the beads and the mixture was stored at -20 °C.

Jak2 = assay: pTyr-Var library bacterial peptide display kinase screen (enrichment scores); format: biochemical, human
Fer kinase domain = assay: as above; format: biochemical, mouse
Fyn kinase domain = assay: as above; format: biochemical, human
c-Src SH2 domain = c-Src SH2 domain (Homo sapiens, UniProt P12931); assay: pTyr-Var library SH2 domain screen with SH2-dynabeads (enrichment scores); conditions: sheet c-Src
AncSZ kinase domain = assay: pTyr-Var library bacterial peptide display kinase screen (enrichment scores); format: biochemical
EPHB2 kinase domain = assay: as above; format: biochemical, human
[2] = mean of log2 of enrichment over R1-R4
[3] = pTyr-Var library, enrichment score, replicate 1
[4] = pTyr-Var library, enrichment score, replicate 3
[5] = pTyr-Var library, enrichment score, replicate 4
[6] = mean of log2 enrichment of reference peptide, n = 5
[7] = pTyr-Var library, reference peptide enrichment, mean of n = 5
[8] = mean of log2 enrichment of reference peptide, n = 4
[9] = pTyr-Var library, reference peptide enrichment, mean of n = 4

c-Src mean of log2(enrichment) (c-Src kinase domain; [2]): 0.391
c-Src enrich. R1 (c-Src kinase domain; [3]): 1.08
c-Src enrich. R3 (c-Src kinase domain; [4]): 1.298
c-Src enrich. R4 (c-Src kinase domain; [5]): 1.223
Fes mean of log2(enrichment) (Fes): 1.487
mean of log2(reference) (FGFR1 kinase domain; [6]): 0.2144
ref. mean (FGFR1 kinase domain; [7]): 1.392
mean of log2(reference) (EPHB1 kinase domain; [8]): 0.89
EPHB1 enrichment (mean) (EPHB1 kinase domain; pTyr-Var library, enrichment score, mean of replicates): 1.865
ref. mean (EPHB1 kinase domain; [9]): 1.865
mean of log2(reference) (FGFR3 kinase domain; [6]): 1.27
ref. mean (FGFR3 kinase domain; [7]): 2.887
mean of log2(reference) (MERTK kinase domain; [8]): 1.359
ref. mean (MERTK kinase domain; [9]): 2.61
Hck enrich. R1 (Hck kinase domain; replicate 1): 1.102
Hck enrich. R3 (Hck kinase domain; replicate 3): 1.0148
Hck enrich. R4 (Hck kinase domain; replicate 4): 0.9933
c-Abl mean of log2(enrichment) (c-Abl kinase domain; [2]): 0.8901
c-Abl enrich. R1 (c-Abl kinase domain; [3]): 1.339
c-Abl enrich. R3 (c-Abl kinase domain; [4]): 1.7654
c-Abl enrich. R4 (c-Abl kinase domain; [5]): 2.061
Jak2 mean of log2(enrichment) (Jak2; mean of log2 of enrichment over R1-R3): 0.9825
Jak2 enrichment (mean) (Jak2; pTyr-Var library, enrichment score, mean of replicates R1-R3): 2.035
Jak2 enrich. R1 (Jak2; [3]): 2.166
Jak2 enrich. R3 (Jak2; [4]): 1.407
Fer mean of log2(enrichment) (Fer kinase domain; [2]): 0.6409
Fer enrich. R1 (Fer kinase domain; [3]): 1.74
Fer enrich. R3 (Fer kinase domain; [4]): 2.063
Fer enrich. R4 (Fer kinase domain; [5]): 1.716
Fyn mean of log2(enrichment) (Fyn kinase domain; [2]): -0.1485
Fyn enrich. R1 (Fyn kinase domain; [3]): 1.939
Fyn enrich. R3 (Fyn kinase domain; [4]): 1.639
Fyn enrich. R4 (Fyn kinase domain; [5]): 0.1487
mean of log2(reference) (c-Src SH2 domain; mean of log2 enrichment of reference peptide, R1-R3): 2.001
ref. mean (c-Src SH2 domain; reference peptide, mean of R1-R3): 4.137
AncSZ mean of log2(enrichment) (AncSZ kinase domain; mean of log2 of enrichment over R1-R5): 1.515
AncSZ enrich. R3 (AncSZ kinase domain; [4]): 3.27
AncSZ enrich. R4 (AncSZ kinase domain; [5]): 3.639
AncSZ enrich. R5 (AncSZ kinase domain; pTyr-Var library, enrichment score, replicate 5): 3.918
mean of log2(reference) (EPHB2 kinase domain; [8]): -0.3867
ref. mean (EPHB2 kinase domain; [9]): 0.9336
Sequence: LRVGFYESDVM [A2M_Y708]
mean of log2(reference) (SHP2 C-SH2 domain; SHP2-C SH2, mean of log2 enrichment of reference, R1-R3): 0.01184
ref. mean (SHP2 C-SH2 domain; reference peptide enrichment score, SHP2-C SH2, mean of R1-R3): 1.018
mean of log2(reference) (Grb2 SH2 domain; Grb2 SH2, mean of log2 enrichment of reference, R1-R3): -0.1031
ref. mean (Grb2 SH2 domain; reference peptide enrichment score, Grb2 SH2, mean of R1-R3): 0.9341
4G10 (mean) [1]: 1.415
